The values that follow come from patent US20220211692A1, “Modulators of the Cystic Fibrosis Transmembrane Conductance Regulator Protein and Methods of Use” (AbbVie Global Enterprises Ltd., priority 2021, published 2022).

This assay deals with T1, F508del/F508del CFTR (Homo sapiens, UniProt P13569, DEL508-508).
T1 construct: cells isolated from CF patients with the homozygous mutation; endogenous in cells; host or cells: primary human bronchial epithelial (hBE) cells from CF patients homozygous for F508del
T1 sequence (P13569 with tags, fused parts or gaps DEL508-508): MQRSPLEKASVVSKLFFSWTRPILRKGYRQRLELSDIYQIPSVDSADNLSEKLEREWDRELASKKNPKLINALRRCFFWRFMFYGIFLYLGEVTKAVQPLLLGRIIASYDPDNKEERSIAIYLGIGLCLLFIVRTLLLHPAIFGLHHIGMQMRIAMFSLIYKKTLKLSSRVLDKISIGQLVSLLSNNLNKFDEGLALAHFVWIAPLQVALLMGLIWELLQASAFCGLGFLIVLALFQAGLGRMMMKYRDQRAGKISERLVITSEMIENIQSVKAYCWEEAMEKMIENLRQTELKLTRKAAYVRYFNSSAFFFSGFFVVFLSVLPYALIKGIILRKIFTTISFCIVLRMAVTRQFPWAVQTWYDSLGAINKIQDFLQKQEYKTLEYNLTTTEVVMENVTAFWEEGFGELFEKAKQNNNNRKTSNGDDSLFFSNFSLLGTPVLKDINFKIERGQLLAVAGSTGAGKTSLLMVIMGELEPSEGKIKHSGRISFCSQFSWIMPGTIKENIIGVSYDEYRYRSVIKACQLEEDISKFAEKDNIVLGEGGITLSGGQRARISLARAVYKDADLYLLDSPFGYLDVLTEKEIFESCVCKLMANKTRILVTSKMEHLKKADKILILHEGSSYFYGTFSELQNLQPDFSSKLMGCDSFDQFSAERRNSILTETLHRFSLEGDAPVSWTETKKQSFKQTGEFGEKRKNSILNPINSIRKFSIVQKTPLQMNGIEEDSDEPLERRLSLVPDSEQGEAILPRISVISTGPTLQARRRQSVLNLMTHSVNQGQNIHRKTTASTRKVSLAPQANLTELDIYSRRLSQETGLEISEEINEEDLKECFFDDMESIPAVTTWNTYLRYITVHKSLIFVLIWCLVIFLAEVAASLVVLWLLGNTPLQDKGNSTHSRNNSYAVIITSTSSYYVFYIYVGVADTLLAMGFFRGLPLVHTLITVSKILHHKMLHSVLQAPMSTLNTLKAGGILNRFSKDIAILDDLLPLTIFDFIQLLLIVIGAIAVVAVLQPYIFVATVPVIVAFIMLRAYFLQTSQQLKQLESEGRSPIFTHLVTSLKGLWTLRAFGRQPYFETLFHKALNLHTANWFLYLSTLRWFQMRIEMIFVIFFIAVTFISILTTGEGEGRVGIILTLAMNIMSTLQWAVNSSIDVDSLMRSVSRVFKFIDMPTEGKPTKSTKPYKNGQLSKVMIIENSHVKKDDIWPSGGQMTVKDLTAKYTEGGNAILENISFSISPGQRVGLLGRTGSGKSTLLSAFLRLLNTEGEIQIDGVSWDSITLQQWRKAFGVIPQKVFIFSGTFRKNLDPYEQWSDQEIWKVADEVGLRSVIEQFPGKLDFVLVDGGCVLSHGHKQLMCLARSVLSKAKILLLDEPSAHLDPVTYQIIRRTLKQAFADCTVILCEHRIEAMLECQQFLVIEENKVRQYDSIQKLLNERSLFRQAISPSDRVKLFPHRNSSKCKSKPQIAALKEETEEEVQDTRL
As to the kind of experiment: Trans-Epithelial Current Clamp (TECC) assay using primary human bronchial epithelial cells. The class given is cell-based. The note with it: for Emax (% Dual): maximum percent activity relative to positive control (co-corrector 0.15 μM + potentiator 0.45 μM = 100%); for EC50: primary hBE cells F508del/F508del, test corrector with co-corrector and potentiator, 18-24 hours, equivalent CFTR current. From the text:
A cell-based assay was developed using the primary human bronchial epithelial cells (hBE cells) with F508del/F508del CFTR and other mutations.
Primary human bronchial epithelial (hBE) cells from CFTR patients with homozygous F508del/F508del mutation were expanded from 1×10^6 to 250×10^6 cells (Neuberger, T et al., 2011, Methods Mol Biol 741:39-54). For this purpose, cells isolated from CF patients with the homozygous mutation, procured from the CF center tissue procurement and cell culture core at the Marsico Lung Institute at UNC (Randell), the Cystic Fibrosis translational research center at McGill University (University), and Rosalind Franklin University Medical School (RFUMS) were seeded onto 24 well Corning (Cat #3378) filter plates that were coated with 3T3 conditioned media and grown at an air-liquid interface for 35 days using an Ultroser® G supplemented differentiation media. All the primary human bronchial epithelial cells were collected in accordance with institutional review board approval protocols. Apical surface mucus was removed 72 hours before the experiment by incubating the apical surface of the cells for 30 minutes with 3 mM dithiothreitol (DTT) prepared in Dulbecco's phosphate buffered saline (DPBS) with Ca^2+ and Mg^2+. This was followed with aspiration of the mucus from the apical surface along with DPBS. The apical surface was re-washed with phosphate buffered saline (PBS) incubated for 30 minutes followed with aspiration. These hBE cells were then incubated with the desired concentrations of the test C2 corrector compounds along with co-corrector, 4-[(2R,4R)-4-({[1-(2,2-difluoro-1,3-benzodioxol-5-yl)cyclopropyl]carbonyl}amino)-7-(difluoromethoxy)-3,4-dihydro-2H-chromen-2-yl]benzoic acid and potentiator, (5-{3-amino-5-[4-(trifluoromethoxy)benzene-1-sulfonyl]pyridin-2-yl}-1,3,4-oxadiazol-2-yl)methanol, for 18-24 hours at 37° C., 5% CO2. The desired concentrations of the correctors and potentiator compounds were prepared from the 10 mM stocks in differentiation media and were always applied on the basolateral side of the epithelial cells. We also used an assay format where a fixed concentration of potentiator was added chronically along with the corrector compounds. This chronic treatment with the potentiator helped eliminate any interaction that might happen with CFTR modulators (correctors and potentiators) and thereby determined the true efficacy of the modulator combinations reflective of clinical relevance.
The assay uses a Transepithelial Current Clamp (TECC) (Vu, C B et al., 2017; J Med Chem 60:458-473) instrument that can measure the functionality of the mutated channel by measuring the equivalent CFTR current (IEQ) generated by the polarized primary epithelial cells. We used a TECC-24 with a 24-channel electrode manifold allowing for the simultaneous measurement of the transepithelial voltage, VT, and transepithelial resistance, RT, under current clamp conditions, from 24 filters using a 24 well Costar filter plate. The design of the filters in the 24 well filter plates was exactly the same as the design of an individual Transwell filter used in the classical Ussing Chamber with a surface area of 0.33 cm^2. Each measured VT values were corrected for the electrode offset potential measured using buffer alone in a separate plate, and each measured RT values were then corrected for the combined solution series and empty filter resistances. The corrected VT and RT values were then used to calculate the equivalent current, IEQ using Ohm's law (IEQ=VT/RT). The area under the curve (AUC) for the time period between the forskolin peak IEQ response and at the time of bumetanide addition was also calculated using a one-third trapezoid method, in addition to calculating the IEQ. The assay was run in a 24-well format and all 24-wells were measured at the same time point giving a higher throughput for this assay. […]

A value given as a limit tells only on which side of the number the result lay.

On to `CCc1ccc(Oc2cccnc2OC)c(C2(C(=O)NS(=O)(=O)c3cccc4nc(C)ccc34)CCCO2)c1` (stereo not shown) [Example 18, 2-{5-ethyl-2-[(2-methoxypyridin-3-yl)oxy]phenyl}-N-(2-methylquinoline-5-sulfonyl)oxolane-2-carboxamide], for which the “Emax (% Dual)” value was 152 % Dual and the EC50 was more than 0.8 µM.
Consider `COc1ccc(C)cc1[C@@]1(C(=O)NS(=O)(=O)c2cccc3nc(C)ccc23)C[C@@H](c2ccccc2)CO1` [Example 32, (2R,4S)-2-(2-methoxy-5-methylphenyl)-N-(2-methylquinoline-5-sulfonyl)-4-phenyloxolane-2-carboxamide], for which the “Emax (% Dual)” value came to 263 % Dual and the concentration for a half-maximal effect (EC50) is 0.0208 µM.
`COc1ccc(C)cc1[C@]1(C(=O)NS(=O)(=O)c2cccc3nc(N)ccc23)CC(C)(C)CO1` [Example 34, (2S)—N-(2-aminoquinoline-5-sulfonyl)-2-(2-methoxy-5-methylphenyl)-4,4-dimethyloxolane-2-carboxamide]: the “Emax (% Dual)” value amounted to 284 % Dual and the EC50 was 0.0346 µM.
The matching figures for `COc1ccc(C)cc1[C@@]1(C(=O)NS(=O)(=O)c2cccc3nc(N)ccc23)CC(C)(C)CO1` [Example 35, (2R)—N-(2-aminoquinoline-5-sulfonyl)-2-(2-methoxy-5-methylphenyl)-4,4-dimethyloxolane-2-carboxamide]: 248 % Dual and 0.443 µM.
For the molecule `COc1cccc([C@H]2CO[C@@](C(=O)NS(=O)(=O)c3cccc4nc(C)ccc34)(c3cc(C)ccc3OC)C2)c1` [Example 43, (2R,4S)-2-(2-methoxy-5-methylphenyl)-4-(3-methoxyphenyl)-N-(2-methylquinoline-5-sulfonyl)oxolane-2-carboxamide], the “Emax (% Dual)” value was determined as 216 % Dual and the EC50 turned out to be 0.0599 µM.

The term EC50 denotes the concentration giving half of the maximal effect.
